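Compound exposure: 48 hours, 5 concentrations, 96-well plates. At the GI50, growth is halved.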 The source made the active and inactive calls. Cut-off read from the data, not from the text of the source: active = GI50 up to about 1.1 µM and inactive = higher.
Experiments:
Assay in all cases: inhibition of tumour cell growth, NCI panel, 48 h
[1] = system: A549
[2] = system: SR
[3] = system: SW-620
[4] = system: NCI/ADR-RES
[5] = system: MDA-MB-435
[6] = system: MOLT-4
[7] = system: OVCAR-8
[8] = system: SNB-75
[9] = system: NCI-H23
[10] = system: HT-29
[11] = system: SK-MEL-28
[12] = system: KM12
[13] = system: MDA-MB-231
[14] = system: IGROV-1
[15] = system: HOP-92
[16] = system: TK-10
[17] = system: SF-539
[18] = system: SN12C
[19] = system: SNB-19
[20] = system: M14

Compound | GI50 [1] | GI50 [2] | GI50 [3] | GI50 [4] | GI50 [5] | GI50 [6] | GI50 [7] | GI50 [8] | GI50 [9] | GI50 [10] | GI50 [11] | GI50 [12] | GI50 [13] | GI50 [14] | GI50 [15] | GI50 [16] | GI50 [17] | GI50 [18] | GI50 [19] | GI50 [20]
O=C(CNc1ccc2c(=S)c3ccccc3[nH]c2c1)Nc1ccccc1-c1ccccc1NC(=O)CNc1ccc2c(=S)c3ccccc3[nH]c2c1 | 24.3 µM (inactive) | 6.01 µM (inactive) | 18.4 µM (inactive) | 31.2 µM (inactive) | 24 µM (inactive) | 3.96 µM (inactive) | 23.9 µM (inactive) | 26.5 µM (inactive) | 13.8 µM (inactive) | 19.7 µM (inactive) | 21.9 µM (inactive) | 18.5 µM (inactive) | 22.7 µM (inactive) | 20.2 µM (inactive) | 23 µM (inactive) | 26.1 µM (inactive) | 24.7 µM (inactive) | 22.2 µM (inactive) | 17.2 µM (inactive) | 16.3 µM (inactive)
CCN(CC)CCNc1c2ccccc2nc2cccc([N+](=O)[O-])c12 | 0.00826 µM (active) | 0.00434 µM (active) | 0.0116 µM (active) | 0.0112 µM (active) | 0.00164 µM (active) | 0.0117 µM (active) | 0.0177 µM (active) | 0.0176 µM (active) | 0.00787 µM (active) | 0.0122 µM (active) | 0.04 µM (active) | 0.0352 µM (active) | 0.00136 µM (active) | 0.0182 µM (active) | 0.0146 µM (active) | 0.0288 µM (active) | 0.0224 µM (active) | 0.0124 µM (active) | 0.0186 µM (active) | 0.00925 µM (active)

Source: ChEMBL document CHEMBL1201862, “PubChem BioAssay data set” (2004)
